Measurements published in patent US20260167629A1, “NOVEL INDAZOLE DERIVATIVE OR PHARMACEUTICALLY ACCEPTABLE SALT THEREOF, AND USE THEREOF” (KOREA UNIVERSITY RESEARCH AND BUSINESS FOUNDATION, priority 2022, published 2026).

Assays:
[1] = tested on: cleaved caspase-3, cleaved caspase-7, PARP in JIMT-1 cell line; experiment: Western blotting of apoptosis-related proteins, JIMT-1; format: cell-based; settings: JIMT-1, 10 μM, 72 hours; for amounts of cleaved caspase-3 and cleaved caspase-7: compared to the control group
Experimental: (§1) To investigate the mechanism of cell death by compound 18c (formula 1-16) and compound 11k (formula 1-7), the activation of apoptosis-related factor caspase family members was determined through western blotting.
(§2) To perform western blotting, BT-474 and JIMT-1 cell lines were treated with control (DMSO), compound 18c, and compound 11k at concentrations of 10 μM each for 72 hours, and then lysed in lysis buffer (30 mM NaCl, 0.5% Triton X-100, 50 mM Tris-HCl; pH 7.4) containing phosphatase and protease inhibitors. The proteins present in the supernatant were harvested. The protein concentration was measured using a Bradford protein assay kit, and 30 μg of protein was taken equally from each experimental group. These proteins were electrophoresed on SDS-Polyacrylamide gels (8-15%), and electrically transferred to a nitrocellulose membrane. The membrane was reacted with primary antibodies [pro PARP (1:1000), cleaved PARP (1:2000), cleaved caspase-3 (1:1000), cleaved caspase-7 (1:1000), β-actin (1:5000)] diluted in 5% bovine serum albumin (BSA) at 4° C. for 24 hours, followed by a secondary antibody, horseradish peroxidase (HRP)-conjugated rabbit IgG (1:3000) for 2 hours at room temperature. The signal intensity of the above proteins was checked by color development using an Enhanced Chemiluminescence Kit and x-ray film.

[2] = tested on: cleaved caspase-3, cleaved caspase-7, PARP in BT474 cell line; experiment: Western blotting of apoptosis-related proteins, BT474; format: cell-based; settings: BT474, 10 μM, 72 hours; for amounts of cleaved caspase-3 and cleaved caspase-7: compared to the control group
Experimental: as §1, §2

[3] = Toxicity in JIMT-1 xenograft mice (body weight, H&E of liver, kidney, lung, AST, ALT, BUN); format: in vivo, Balb/c nude mice; settings: intraperitoneally, 30 mg/kg compound 18c or 20 mg/kg compound 11k
Experimental: (§3) 6-week-old mice (Balb/c nude mice) were purchased and raised in an environment where they could freely access food and water. The mice were acclimated for more than 7 days, and then were transplanted with tumor cells. Tumor cells were injected subcutaneously into the mammary gland tissue of JIMT-1 breast cancer cells at a density of 3×10^6 cells/mL per individual, and when the tumor reached a size of 50 to 100 mm^3, the indazole derivative of the present disclosure was administered intraperitoneally, and the tumor growth was measured. The experimental groups were treated with either 30 mg/kg of compound 18c (formula 1-16) or 20 mg/kg of compound 11k (formula 1-7), and tumor volume, tumor weight, body weight, and the like were measured every 3 to 4 days from the time of administration until the end of the study.
To determine whether the treatment with the indazole derivatives of the present disclosure would affect normal organs, a toxicity analysis was performed.
The mouse model was sacrificed. The liver, kidney, and lung tissues were fixed in 4% paraformaldehyde for 24 hours, washed in PBS buffer, and then embedded in paraffin. Tissue samples were sectioned and stained with H&E (hematoxylin & eosin). […]

[4] = tested on: JIMT-1 breast cancer cell line xenograft; experiment: Tumor growth in xenograft mouse model transplanted with JIMT-1; format: in vivo, Balb/c nude mice; settings: intraperitoneally, 30 mg/kg compound 18c or 20 mg/kg compound 11k; for tumor volume / tumor weight: compared to the control group
Experimental: This experiment was performed in an in vivo environment using a xenograft mouse model transplanted with the JIMT-1 breast cancer cell line.
as §3

[5] = tested on: Hsp90 clients in JIMT-1 cell line; experiment: Western blotting of Hsp90 clients, JIMT-1; format: cell-based; settings: JIMT-1, 10 μM, 72 hours
Experimental: as §2
Western blotting was used to investigate whether Hsp90 inhibitors, compound 18c (formula 1-16) and compound 11k (formula 1-7), could downregulate the expression and activity (phosphorylation) of HER2 and HER3, which are representative clients of Hsp90, in BT474 and JIMT-1 cell lines. The expression of Akt, MEK, ERK, Bcl-2, Cyclin D1, and Survivin, which are key factors for cell survival as Hsp90 clients, was also investigated. The western blotting was performed by the method that was used in Experimental Example 2.3.
The BT474 and JIMT-1 cell lines were treated with compound 18c and compound 11k at a concentration of 10 μM for 72 hours.

[6] = tested on: BT474 breast cancer cell line; experiment: Flow cytometry DNA content (PI), cell cycle arrest and cell death, BT474; format: cell-based; settings: BT474, 5 and 10 μM, 72 hours, flow cytometer
Experimental: The degree of cancer cell death by the indazole derivative of the present disclosure was measured by analyzing DNA content using a flow cytometer. Cells were treated with compound 18c (formula 1-16) and compound 11k (formula 1-7) at concentrations of 0 (DMSO), 5, and 10 μM for 72 hours, and then the cells were harvested. Thereafter, the cells were fixed with 95% ethanol containing 0.5% Tween-20 for 24 hours, and stained with propidium iodide (PI, 50 μg/mL) and RNase (50 μg/mL) for 30 minutes. Afterwards, the degree of cancer cell death was analyzed using a flow cytometer.
In general, the cell cycle is divided into G1 (cell growth phase)—S(cell replication phase)—G2/M (cell division phase) according to the content of intracellular DNA. […] The results of this cell death within the cell cycle are manifested by the Sub-G1 region, and the percentage of Sub-G1 induced by the indazole derivative of the present disclosure is shown numerically in FIGS. 5B and 6B.

[7] = tested on: BT474 cell line; experiment: MTS cell viability assay in BT474 cell line; format: cell-based; settings: Homo sapiens, BT-474, BT474, 72 hours
Experimental: Specifically, cells were attached to 96 well plates for 24 hours, and then treated with the indazole derivatives for 72 hours. Thereafter, the cells were chromogenized with MTS for 4 hours, and the absorbance was measured at 490 nm using a Spectramax Plus384 microplate analyzer.
HER2 positive breast cancer (HER2+BC) cell lines, BT474 (cell seeding numbers: 2.4 (BT474)×10^4 cells/wells (confluency≥50%)) sensitive to trastuzumab and JIMT-1 (cell seeding numbers: 1.0 (JIMT-1)×10^4 cells/wells (confluency>30%)) resistant to trastuzumab were used in the experiment.
In this case, the cell lines were treated with the benzopyran derivative at a concentration of 10 μM for 72 hours and the cell lines were treated with the indazole derivative at a concentration of 10 μM for 72 hours, and then the cell viability was measured.

IC50 [7] [µM]	SMILES	cleaved-PARP (89 kDa) [1]	amounts of cleaved caspase-3 and cleaved caspase-7 [1]	cleaved-PARP (89 kDa) [2]	amounts of cleaved caspase-3 and cleaved caspase-7 [2]	body weight [3]	tumor size (visual inspection) [4]	tumor volume [4]	tumor weight [4]	expression of HER2 and HER3 [5]	expression of activated forms phospho-HER2 and phospho-HER3 [5]	expression of cell proliferation factors Akt, MEK, ERK, Bcl-2, Cyclin D1, and Survivin [5]	G2/M phase of the cell cycle [6]	cell death (Sub-G1 population) [6]
8.48	COc1c(C(=O)Nc2ccc3c(C)nn(CCC4CCN(C)CC4)c3c2)ccc2c1C=CC(C)(C)O2 [compound 11k, 5-Methoxy-2,2-dimethyl-N-(3-methyl-1-(2-(1-methylpiperidin-4-yl)ethyl)-1H-indazol-6-yl)-2H-chromene-6-carboxamide]	increase	significantly increased	increase	significantly increased	maintained	reduced by more than half	significantly reduced	significantly reduced	decreased	significantly reduced	inhibited the expression	arrested the G2/M phase	significantly induced cell death
4.98	COCCn1nc(NC(=O)c2ccc3c(c2OC)C=CC(C)(C)O3)c2ccccc21 [compound 18c, 5-Methoxy-N-(1-(2-methoxyethyl)-1H-indazol-3-yl)-2,2-dimethyl-2H-chromene-6-carboxamide]	increase	significantly increased	increase	significantly increased	maintained	reduced by more than half	significantly reduced	significantly reduced	decreased	significantly reduced	inhibited the expression	arrested the G2/M phase	significantly induced cell death
